# Biological target: KDR (Homo sapiens, UniProt P35968)
# Assay: KDR kinase inhibition (Ki)
# Assay type: biochemical
# Chain of KDR (P35968 20-1356, species assumed): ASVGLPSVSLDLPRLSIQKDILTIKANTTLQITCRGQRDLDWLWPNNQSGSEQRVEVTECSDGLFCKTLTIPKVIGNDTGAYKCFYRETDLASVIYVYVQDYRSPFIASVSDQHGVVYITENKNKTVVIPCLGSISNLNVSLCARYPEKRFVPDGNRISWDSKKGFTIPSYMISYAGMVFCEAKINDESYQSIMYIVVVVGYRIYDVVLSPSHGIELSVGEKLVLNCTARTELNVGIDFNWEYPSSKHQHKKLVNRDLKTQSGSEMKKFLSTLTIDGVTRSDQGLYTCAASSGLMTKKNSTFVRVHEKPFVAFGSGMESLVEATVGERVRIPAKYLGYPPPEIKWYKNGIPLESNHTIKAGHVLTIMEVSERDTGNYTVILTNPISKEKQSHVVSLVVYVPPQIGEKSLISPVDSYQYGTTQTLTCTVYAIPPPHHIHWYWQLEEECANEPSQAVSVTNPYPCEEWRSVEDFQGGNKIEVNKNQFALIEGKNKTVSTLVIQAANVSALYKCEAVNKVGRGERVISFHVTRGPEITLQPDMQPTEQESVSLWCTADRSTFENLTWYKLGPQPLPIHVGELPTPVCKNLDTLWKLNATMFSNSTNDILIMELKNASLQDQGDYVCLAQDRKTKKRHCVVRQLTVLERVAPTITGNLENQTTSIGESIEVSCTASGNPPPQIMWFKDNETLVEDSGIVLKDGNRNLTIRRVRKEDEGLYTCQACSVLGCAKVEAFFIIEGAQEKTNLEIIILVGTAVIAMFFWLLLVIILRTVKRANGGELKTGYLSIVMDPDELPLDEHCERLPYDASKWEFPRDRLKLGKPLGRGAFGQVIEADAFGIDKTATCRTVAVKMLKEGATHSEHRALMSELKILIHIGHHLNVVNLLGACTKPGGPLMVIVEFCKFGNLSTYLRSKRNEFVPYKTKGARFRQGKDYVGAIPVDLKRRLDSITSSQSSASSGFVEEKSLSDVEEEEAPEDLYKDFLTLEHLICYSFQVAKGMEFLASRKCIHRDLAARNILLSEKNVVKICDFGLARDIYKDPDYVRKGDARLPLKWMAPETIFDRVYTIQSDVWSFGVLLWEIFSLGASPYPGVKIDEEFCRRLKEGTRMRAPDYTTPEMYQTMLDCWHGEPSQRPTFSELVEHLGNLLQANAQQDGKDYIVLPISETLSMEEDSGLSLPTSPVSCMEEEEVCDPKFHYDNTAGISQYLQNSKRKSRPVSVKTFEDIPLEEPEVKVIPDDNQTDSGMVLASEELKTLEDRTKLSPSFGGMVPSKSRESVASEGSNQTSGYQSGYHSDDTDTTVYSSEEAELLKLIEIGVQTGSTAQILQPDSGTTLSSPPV
row,SMILES,Ki [nM]
1,"O=C(Nc1ccc(Cl)cc1)c1cccc2c1CCN(Cc1ccncc1)C2 [Example 1, N-(4-chlorophenyl)-2-(pyridin-4-ylmethyl)-1,2,3,4-tetrahydroisoquinoline-5-carboxamide]",3000
2,CC(C)c1ccc(NC(=O)Nc2cccc3c2CCN(Cc2ccnc4ccccc24)C3)cc1 [Example 5A],72.3
3,Cc1cccc(NC(=O)c2cccc3c2CCN(Cc2ccnc4ccccc24)C3)c1 [Example 3A],105
4,O=C(Nc1ccc(Cl)cc1)Nc1cccc2c1CCN(Cc1ccnc3ccccc13)C2 [Example 5C],70.1
5,"COc1cc2nccc(Cn3ccc4cc(Cl)ccc4c3=O)c2cc1OC [Example 11, 6-chloro-2-((6,7-dimethoxyquinolin-4-yl)methyl)isoquinolin-1(2H)-one]",529
6,CC(C)(C)c1ccc(NC(=O)c2cccc3c2CCN(Cc2ccncc2)C3)cc1 [Example 1A],333

# Molecules with a lower Ki, results first:
row,Ki [nM],SMILES
1,42.8,COc1cc(NC(=O)c2cccc3c2CCN(Cc2ccnc4ccccc24)C3)cc(OC)c1 [Example 3C]
2,11.1,CC(C)(C)c1ccc(NC(=O)c2cccc3c2CCN(Cc2ccnc4ccccc24)C3=O)cc1 [Example 7A]
3,5.4,CC(=O)N1CC(C)(C)c2ccc(NC(=O)c3cccc4c3CCN(Cc3ccnc5ccccc35)C4)cc21 [Example 3H]
4,1.6,COc1cc2nccc(CN3CCc4c(C(=O)Nc5ccc(Cl)c(C(F)(F)F)c5)cccc4C3=O)c2cc1OC [Example 10A]

# Source: patent US8338455B2, “Compounds and methods of use” (Amgen Inc., priority 2006, dated 2012)
